Assay results: the NIST ThermoML archive (doi:10.1021/je100823t)
Numbers after ± are expanded uncertainties.

How the values were obtained:
[1] = 101 kPa, Liquid; for viscosity: Capillary tube (Ostwald / Ubbelohde) method; for mass density: Pycnometric method
[2] = xn = mol fraction of the nth substance listed; conditions: 101 kPa, Liquid; for viscosity: Capillary tube (Ostwald / Ubbelohde) method; for mass density: Pycnometric method

Cc1cccc(C)c1 [1,3-dimethylbenzene]
[1]
Conditions	mass density [kg/m3]	viscosity [mPa·s]
308.15 K	851.3 ± 1.1	0.521 ± 0.012
318.15 K	842.7 ± 1.1	0.47 ± 0.011

Cc1ccccc1C [1,2-dimethylbenzene]
[1]
Conditions	mass density [kg/m3]	viscosity [mPa·s]
308.15 K	866.7 ± 1.1	0.666 ± 0.013
318.15 K	858.4 ± 1.1	0.591 ± 0.012

Cc1cccc(C)c1 [1,3-dimethylbenzene] + CCCCCCO
[2]
Conditions	mass density, 308.15 K [kg/m3]	mass density, 318.15 K [kg/m3]	viscosity, 308.15 K [mPa·s]	viscosity, 318.15 K [mPa·s]
x2 = 0	851.3 ± 1.1	842.7 ± 1.1	0.521 ± 0.012	0.47 ± 0.011
x2 = 0.1002	846.4 ± 1.1	837.6 ± 1.1	0.562 ± 0.012	0.502 ± 0.012
x2 = 0.2002	841.7 ± 1.1	833 ± 1.1	0.638 ± 0.013	0.561 ± 0.012
x2 = 0.3007	837.2 ± 1.1	828.7 ± 1.1	0.742 ± 0.013	0.643 ± 0.013
x2 = 0.4001	833 ± 1.1	824.6 ± 1.1	0.875 ± 0.014	0.747 ± 0.013
x2 = 0.5	828.8 ± 1.1	820.6 ± 1.1	1.057 ± 0.016	0.885 ± 0.014
x2 = 0.5999	824.7 ± 1.1	816.6 ± 1.1	1.298 ± 0.018	1.066 ± 0.016
x2 = 0.6999	820.6 ± 1.1	812.7 ± 1.1	1.629 ± 0.021	1.306 ± 0.018
x2 = 0.7999	816.6 ± 1.1	808.8 ± 1.1	2.072 ± 0.026	1.623 ± 0.021
x2 = 0.8999	812.6 ± 1.1	805 ± 1.1	2.643 ± 0.032	2.031 ± 0.026

CCCCCCO [hexan-1-ol] + Cc1ccccc1C
[2], x1 = 1
Conditions	mass density [kg/m3]	viscosity [mPa·s]
308.15 K	808.5 ± 1.1	3.318 ± 0.039
318.15 K	801.2 ± 1	2.518 ± 0.031

Cc1ccccc1C [1,2-dimethylbenzene] + CCCCCCO
[2]
Conditions	mass density, 308.15 K [kg/m3]	mass density, 318.15 K [kg/m3]	viscosity, 308.15 K [mPa·s]	viscosity, 318.15 K [mPa·s]
x2 = 0	866.7 ± 1.1	858.4 ± 1.1	0.666 ± 0.013	0.591 ± 0.012
x2 = 0.0999	860.1 ± 1.1	851.7 ± 1.1	0.709 ± 0.013	0.621 ± 0.012
x2 = 0.1999	853.9 ± 1.1	845.6 ± 1.1	0.789 ± 0.014	0.683 ± 0.013
x2 = 0.2999	847.9 ± 1.1	839.7 ± 1.1	0.899 ± 0.014	0.768 ± 0.013
x2 = 0.4001	842.1 ± 1.1	833.9 ± 1.1	1.043 ± 0.016	0.879 ± 0.014
x2 = 0.4997	836.4 ± 1.1	828.3 ± 1.1	1.23 ± 0.017	1.02 ± 0.016
x2 = 0.6	830.7 ± 1.1	822.7 ± 1.1	1.475 ± 0.02	1.199 ± 0.017
x2 = 0.7	825.1 ± 1.1	817.2 ± 1.1	1.799 ± 0.023	1.431 ± 0.019
x2 = 0.8	819.5 ± 1.1	811.8 ± 1.1	2.217 ± 0.027	1.73 ± 0.022
x2 = 0.8999	814 ± 1.1	806.4 ± 1	2.738 ± 0.033	2.104 ± 0.027

CCCCCCO [hexan-1-ol]
[1]
Conditions	mass density [kg/m3]	viscosity [mPa·s]
308.15 K	808.5 ± 1.1	3.318 ± 0.039
318.15 K	801.2 ± 1	2.518 ± 0.031

Cc1ccc(C)cc1 [1,4-dimethylbenzene]
[1]
Conditions	mass density [kg/m3]	viscosity [mPa·s]
308.15 K	848.2 ± 1.1	0.541 ± 0.012
318.15 K	839.5 ± 1.1	0.486 ± 0.012

CCCCCCO [hexan-1-ol] + Cc1cccc(C)c1
[2], x1 = 1
Conditions	mass density [kg/m3]	viscosity [mPa·s]
308.15 K	808.5 ± 1.1	3.318 ± 0.039
318.15 K	801.2 ± 1.1	2.518 ± 0.031

CCCCCCO [hexan-1-ol] + Cc1ccc(C)cc1
[2]
Conditions	mass density, 308.15 K [kg/m3]	mass density, 318.15 K [kg/m3]	viscosity, 308.15 K [mPa·s]	viscosity, 318.15 K [mPa·s]
x1 = 0.1001	843.6 ± 1.1	834.9 ± 1.1	0.578 ± 0.012	0.513 ± 0.012
x1 = 0.2001	839.4 ± 1.1	830.8 ± 1.1	0.647 ± 0.013	0.567 ± 0.012
x1 = 0.2999	835.4 ± 1.1	826.9 ± 1.1	0.742 ± 0.013	0.643 ± 0.013
x1 = 0.4001	831.4 ± 1.1	823.1 ± 1.1	0.87 ± 0.014	0.743 ± 0.013
x1 = 0.5009	827.5 ± 1.1	819.3 ± 1.1	1.046 ± 0.016	0.877 ± 0.014
x1 = 0.5999	823.7 ± 1.1	815.6 ± 1.1	1.279 ± 0.018	1.051 ± 0.016
x1 = 0.6999	819.9 ± 1.1	811.9 ± 1.1	1.602 ± 0.021	1.287 ± 0.018
x1 = 0.8	816.1 ± 1.1	808.3 ± 1.1	2.042 ± 0.026	1.604 ± 0.021
x1 = 0.9	812.3 ± 1.1	804.7 ± 1.1	2.618 ± 0.032	2.017 ± 0.026
x1 = 1	808.5 ± 1.1	801.2 ± 1.1	3.318 ± 0.039	2.518 ± 0.031

Cc1ccc(C)cc1 [1,4-dimethylbenzene] + CCCCCCO
[2], x2 = 0
Conditions	mass density [kg/m3]	viscosity [mPa·s]
308.15 K	848.2 ± 1.1	0.541 ± 0.012
318.15 K	839.5 ± 1.1	0.486 ± 0.012
